Experimental data: patent publication US6410575B1, “Viral treatment” (The Procter & Gamble Company, priority 1999, dated 2002)
“And” between values parts separate entries of the source, which are not always exact repeats. Identical values can stand only once.

How the values were obtained:
HIV-2 cell line, CEMROD = experiment: Long term in vitro study, CEMROD; assay type: cell-based
Method: (§1) Toxicity quantification involves the XTT-based evaluation. Assays were designed to characterize the long term effects of the compounds on virus production and to characterize the longer term effects of the compounds on virus production from chronically HIV infected cells.
(§2) CEM-SS cells chronically infected with HIV isolate, for example SKI (CEM-SKI) are cultured in RPMI1640 tissue culture medium supplemented with 10% fetal bovine serum and antibiotics. […] CEM-SKI or other infected cells with no added drug are used as the control cells.
(§3) Cells are allowed to grow to a density of approximately 1×10^6 cells/ml and are then passaged at a 1:10 dilution. […] The drug concentration in the flask is then increased two-fold and the cells maintained as above.
(§4) The cell populations contain integrated copies of the HIV genome and constitutively produce HIV at relatively high levels or are latently infected and only produce virus after stimulation with phorbol esters, tumor necrosis factor or IL6(U1 and ACH2). Reductions in virus products were observed when quantifying supernatant reverse transcriptase activity.
The results with CEMROD cells was reported at weekly intervals.
The CEMROD cell line is a viral strain of the CEMSS cell line.

HIV-2 virus, CEMROD = experiment: In vitro screening test against HIV-2, reverse transcriptase activity; assay type: cell-based; parameters: Reverse Transcriptase Activity, sample / Reverse Transcriptase Activity, average: unit not given here
Text: The results of one test are shown below

HIV-1 protease = biological target: T1, HIV-1 protease (Human immunodeficiency virus type 1 group M subtype B, UniProt P04585); experiment: Protease inhibition assay (fluorometric); assay type: biochemical
T1 construct: use of the fluorometric, HIV-1 protease assay; purchased Bachem
Method: Protease inhibition is evaluated using a fluorometric method. Enzyme (Bachem) is diluted to 116 μgm/ml in 50 mM NaOAC, 5 mM DTT, 2 mM EDTA, 10% glycerol (pH 5.0) and stored as 10 μl samples at −20° C. HIV protease substrates 1 (Molecular Probes) are diluted to a working concentration of 0.32 nmoles/μl. Enzyme (20 μl) and drug (20 μl) are added to each well of a microtiter plate as appropriate. Positive and negative controls are evaluated in parallel. Fluorescene is quantitated on Labsystems Fluroskan II using 355 nm/460 nm at 37° C. at time zero and at 30 minute intervals for 2 hours. In instances where auto-fluorescence precludes use of the fluorometric, HIV-1 protease assay or confirmation of a result is required, an HPLC based protease assay can be employed.
(§5) The mechanism of action of the (5-aryl-1,2,4-thiadiazol)-3-yl thiourea derivatives or (5-aryl-1,2,4-thiadizol)-3-yl urea derivatives is not known.

HIV-1 integrase = HIV-1 integrase (Human immunodeficiency virus type 1 group M subtype B, UniProt P04585); experiment: Integrase inhibition assay (autoradiography); assay type: biochemical
Text: A biochemical integrase assay described by Craigie et at (HIV, vol. 2: A practical Approach) Biochemistry, Molecular Biology and Drug Discovery, Ed. J. Kam 1995) to screen agents for their ability to inhibit HIV-1 integrase can be used. In this system, a kinased oligonucleotide serves as the target of 3′ processing and the subsequent strand transfer reaction. The 3′ processing reaction involves the removal of 2 nucleotides from the 3′ ends of the substrate. This is followed by the strand transfer reaction in which the 3′ ends are joined to the exposed 5′ ends. The 20 μl reaction mixture contains 25 mM MOPS (pH 7.2), […] BSA, 10 mM β-mercaptoethanol, 10% glycerol; 7.5 mM MnCl2, 25 nM (7 ng) substrate (Oligo's Etc., Wilsonville, Oreg.) and 200 nM (128 ng) integrase (NIAID AIDS Research and Reference Reagent Program, Bethesda, Md.). The reaction proceeds at 37° C. for 1-2 hours and is terminated by the addition of 20 μl of sequencing stop solution (USB Amersham, Arlington Heights, Ill.). The reaction products are visualized by autoradiography following electrophoresis in 15% polyacrylamide 6M Urea gel. The substrate migrates as a 30 mer, the product of 3′ processing migrates as an N-2 band and the strand transfer products migrate more slowly at various sizes larger than the substrate.
as §5

[1] = tested on: HIV-1 cell line, U937IIIB; experiment: Long term in vitro study, U937IIIB; assay type: cell-based
Method: as §1, §2, §3, §4
The results with U937IIIB cells were reported at weekly intervals.
The U937IIIB cell line is viral strain of the U937 cell line.

NC(=S)Nc1nsc(-c2ccccc2)n1
virus production (supernatant reverse transcriptase activity) (HIV-2 cell line, CEMROD; 7 μg/ml, day 4): 6593 | virus production (supernatant reverse transcriptase activity) (HIV-2 cell line, CEMROD; 7 μg/ml, day 11): 8676 | virus production (supernatant reverse transcriptase activity) (HIV-2 cell line, CEMROD; 7 μg/ml, day 18): 10912 | virus production (supernatant reverse transcriptase activity) (HIV-2 cell line, CEMROD; 7 μg/ml, day 25): 9356 | virus production (supernatant reverse transcriptase activity) (HIV-2 cell line, CEMROD; 7 μg/ml, day 32): 8803 | virus production (supernatant reverse transcriptase activity) (HIV-2 cell line, CEMROD; 7 μg/ml, day 39): 6655 | virus production (supernatant reverse transcriptase activity) (HIV-2 cell line, CEMROD; 7 μg/ml, day 46): 8280 | virus production (supernatant reverse transcriptase activity) (HIV-2 cell line, CEMROD; 7 μg/ml, day 53): 7549 | virus production (supernatant reverse transcriptase activity) (HIV-2 cell line, CEMROD; 15 μg/ml, day 4): 6815 | virus production (supernatant reverse transcriptase activity) (HIV-2 cell line, CEMROD; 15 μg/ml, day 11): 8202 | virus production (supernatant reverse transcriptase activity) (HIV-2 cell line, CEMROD; 15 μg/ml, day 18): 10389 | virus production (supernatant reverse transcriptase activity) (HIV-2 cell line, CEMROD; 15 μg/ml, day 25): 7816 | virus production (supernatant reverse transcriptase activity) (HIV-2 cell line, CEMROD; 15 μg/ml, day 32): 6672 | virus production (supernatant reverse transcriptase activity) (HIV-2 cell line, CEMROD; 15 μg/ml, day 39): 7087 | virus production (supernatant reverse transcriptase activity) (HIV-2 cell line, CEMROD; 15 μg/ml, day 46): 6457 | virus production (supernatant reverse transcriptase activity) (HIV-2 cell line, CEMROD; 15 μg/ml, day 53): 6544 | virus production (supernatant reverse transcriptase activity) (HIV-2 cell line, CEMROD; 30 μg/ml, day 4): 6626 | virus production (supernatant reverse transcriptase activity) (HIV-2 cell line, CEMROD; 30 μg/ml, day 11): 6582 | virus production (supernatant reverse transcriptase activity) (HIV-2 cell line, CEMROD; 30 μg/ml, day 18): 7494 | virus production (supernatant reverse transcriptase activity) (HIV-2 cell line, CEMROD; 30 μg/ml, day 25): 4421 | virus production (supernatant reverse transcriptase activity) (HIV-2 cell line, CEMROD; 30 μg/ml, day 32): 4056 | virus production (supernatant reverse transcriptase activity) (HIV-2 cell line, CEMROD; 30 μg/ml, day 39): 2118 | virus production (supernatant reverse transcriptase activity) (HIV-2 cell line, CEMROD; 30 μg/ml, day 46): 4117 | virus production (supernatant reverse transcriptase activity) (HIV-2 cell line, CEMROD; 30 μg/ml, day 53): 4779 | % virus control (HIV-2 virus, CEMROD; 0.32 μg/ml): 113.2% | Reverse Transcriptase Activity, average (HIV-2 virus, CEMROD; 0.32 μg/ml): 5451 | Reverse Transcriptase Activity, sample (HIV-2 virus, CEMROD; 0.32 μg/ml): 4664 and 6972 and 4717 | % virus control (HIV-2 virus, CEMROD; 1 μg/ml): 95.5% | Reverse Transcriptase Activity, average (HIV-2 virus, CEMROD; 1 μg/ml): 4601 | Reverse Transcriptase Activity, sample (HIV-2 virus, CEMROD; 1 μg/ml): 4005 and 4407 and 5392 | % virus control (HIV-2 virus, CEMROD; 1.0 μg/ml): 66.6% | Reverse Transcriptase Activity, average (HIV-2 virus, CEMROD; 1.0 μg/ml): 3208 | Reverse Transcriptase Activity, sample (HIV-2 virus, CEMROD; 1.0 μg/ml): 3001 and 3077 and 3547 | % virus control (HIV-2 virus, CEMROD; 3.2 μg/ml): 74.9% | Reverse Transcriptase Activity, average (HIV-2 virus, CEMROD; 3.2 μg/ml): 3606 | Reverse Transcriptase Activity, sample (HIV-2 virus, CEMROD; 3.2 μg/ml): 4166 and 3318 and 3334 | % virus control (HIV-2 virus, CEMROD; 32 μg/ml): 36.4% | Reverse Transcriptase Activity, average (HIV-2 virus, CEMROD; 32 μg/ml): 1753 | Reverse Transcriptase Activity, sample (HIV-2 virus, CEMROD; 32 μg/ml): 1832 and 1550 and 1876 | % virus control (HIV-2 virus, CEMROD; 100 μg/ml): 1.2% | Reverse Transcriptase Activity, average (HIV-2 virus, CEMROD; 100 μg/ml): 57 | Reverse Transcriptase Activity, sample (HIV-2 virus, CEMROD; 100 μg/ml): 72 and 48 and 52 | EC50 (HIV-1 protease): > 423 µM | activity as a protease inhibitor (HIV-1 protease): did not show activity | remaining activity at 0.001 µM (HIV-1 protease; 1 nM, read-out: Protease inhibition, % no drug control): 100% | remaining activity at 0.01 µM (HIV-1 protease; 10 nM, read-out: Protease inhibition, % no drug control): 103% | remaining activity at 0.1 µM (HIV-1 protease; 100 nM, read-out: Protease inhibition, % no drug control): 99.9% | remaining activity at 1 µM (HIV-1 protease; read-out: Protease inhibition, % no drug control): 88% | EC50 (HIV-1 integrase): > 423 µM | activity as an integrase inhibitor (HIV-1 integrase): did not show activity | remaining activity at 1 µg/mL (HIV-1 integrase; 1 μg/ml, read-out: HIV-1 integrase inhibition, % no drug control): 108% | remaining activity at 10 µg/mL (HIV-1 integrase; 10 μg/ml, read-out: HIV-1 integrase inhibition, % no drug control): 117% | remaining activity at 100 µg/mL (HIV-1 integrase; 100 μg/ml, read-out: HIV-1 integrase inhibition, % no drug control): 106% | remaining activity at 0.1 µg/mL (HIV-1 integrase; read-out: HIV-1 integrase inhibition, % no drug control): 98.8% | virus production (supernatant reverse transcriptase activity) ([1]; 7 μg/ml, day 4): 9368 | virus production (supernatant reverse transcriptase activity) ([1]; 7 μg/ml, day 11): 8889 | virus production (supernatant reverse transcriptase activity) ([1]; 7 μg/ml, day 18): 7566 | virus production (supernatant reverse transcriptase activity) ([1]; 7 μg/ml, day 25): 5781 | virus production (supernatant reverse transcriptase activity) ([1]; 7 μg/ml, day 32): 3414 | virus production (supernatant reverse transcriptase activity) ([1]; 7 μg/ml, day 39): 5346 | virus production (supernatant reverse transcriptase activity) ([1]; 7 μg/ml, day 46): 4085 | virus production (supernatant reverse transcriptase activity) ([1]; 7 μg/ml, day 53): 4832 | virus production (supernatant reverse transcriptase activity) ([1]; 15 μg/ml, day 4): 9710 | virus production (supernatant reverse transcriptase activity) ([1]; 15 μg/ml, day 11): 8025 | virus production (supernatant reverse transcriptase activity) ([1]; 15 μg/ml, day 18): 5435 | virus production (supernatant reverse transcriptase activity) ([1]; 15 μg/ml, day 25): 6064 | virus production (supernatant reverse transcriptase activity) ([1]; 15 μg/ml, day 32): 2479 | virus production (supernatant reverse transcriptase activity) ([1]; 15 μg/ml, day 39): 4377 | virus production (supernatant reverse transcriptase activity) ([1]; 15 μg/ml, day 46): 3867 | virus production (supernatant reverse transcriptase activity) ([1]; 15 μg/ml, day 53): 3510 | virus production (supernatant reverse transcriptase activity) ([1]; 30 μg/ml, day 4): 9549 | virus production (supernatant reverse transcriptase activity) ([1]; 30 μg/ml, day 11): 7639 | virus production (supernatant reverse transcriptase activity) ([1]; 30 μg/ml, day 18): 3551 | virus production (supernatant reverse transcriptase activity) ([1]; 30 μg/ml, day 25): 4611 | virus production (supernatant reverse transcriptase activity) ([1]; 30 μg/ml, day 32): 1855 | virus production (supernatant reverse transcriptase activity) ([1]; 30 μg/ml, day 39): 2410 | virus production (supernatant reverse transcriptase activity) ([1]; 30 μg/ml, day 46): 1550 | virus production (supernatant reverse transcriptase activity) ([1]; 30 μg/ml, day 53): 1819
